Experimental data reported in ChEMBL document CHEMBL1201862, “PubChem BioAssay data set” (2004).
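Cultured in 96-well plates, cells were exposed to test compound for 48 hours across five concentrations. GI50: concentration for 50% inhibition of growth.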 Activity calls are given as the source filed them. Cut-off read from the data, not from the text of the source: active = GI50 up to about 1.1 µM and inactive = higher.

How the values were obtained:
Assay in all cases: NCI anticancer screen, dose series, 48 h
MCF7 = tested on: MCF7
SNB-19 = tested on: SNB-19
UACC-62 = tested on: UACC-62
CAKI-1 = tested on: CAKI-1
OVCAR-8 = tested on: OVCAR-8
HCT-15 = tested on: HCT-15
OVCAR-4 = tested on: OVCAR-4
DU-145 = tested on: DU-145
UO-31 = tested on: UO-31
LOX IMVI = tested on: LOX IMVI
OVCAR-3 = tested on: OVCAR-3
SK-MEL-2 = tested on: SK-MEL-2
SR = tested on: SR
ACHN = tested on: ACHN
HOP-92 = tested on: HOP-92
MOLT-4 = tested on: MOLT-4
NCI-H522 = tested on: NCI-H522
NCI-H23 = tested on: NCI-H23
SW-620 = tested on: SW-620
SK-OV-3 = tested on: SK-OV-3

SMILES | GI50 (MCF7) | GI50 (SNB-19) | GI50 (UACC-62) | GI50 (CAKI-1) | GI50 (OVCAR-8) | GI50 (HCT-15) [µM] | GI50 (OVCAR-4) | GI50 (DU-145) | GI50 (UO-31) | GI50 (LOX IMVI) | GI50 (OVCAR-3) | GI50 (SK-MEL-2) | GI50 (SR) | GI50 (ACHN) | GI50 (HOP-92) | GI50 (MOLT-4) | GI50 (NCI-H522) | GI50 (NCI-H23) | GI50 (SW-620) | GI50 (SK-OV-3)
CC(C)CC1c2[nH]c3ccccc3c2C[C@H]2C(=O)NC(CCCCNC(=O)OC(C)(C)C)C(=O)N12 (stereo partly specified) | 34.3 µM (inactive) | 47.1 µM (inactive) | 27 µM (inactive) | 37.3 µM (inactive) | 34.2 µM (inactive) | 31.8 | 37.7 µM (inactive) | 38 µM (inactive) | 38.1 µM (inactive) | 24.6 µM (inactive) | 2.36 µM (inactive) | 21.6 µM (inactive) | 11.9 µM (inactive) | 29 µM (inactive) | 31 µM (inactive) | 11.8 µM (inactive) | 19.5 µM (inactive) | 33 µM (inactive) | 41 µM (inactive) | –
CC(NC(=O)c1ccc(Cl)c(Cl)c1)c1ccc(-c2ccccc2)cc1 (stereo unspecified) | 78 µM (inactive) | 21.1 µM (inactive) | 31.6 µM (inactive) | 29.9 µM (inactive) | 26.3 µM (inactive) | > 100 | 16.4 µM (inactive) | 18.3 µM (inactive) | 14.2 µM (inactive) | 38.3 µM (inactive) | 20.8 µM (inactive) | > 100 µM (inactive) | 15.2 µM (inactive) | 50.1 µM (inactive) | 25.5 µM (inactive) | – | 33.3 µM (inactive) | 48.3 µM (inactive) | 79.4 µM (inactive) | 27.5 µM (inactive)
O=C1/C(=C\c2ccc([N+](=O)[O-])cc2)CS(=O)(=O)C/C1=C/c1ccc([N+](=O)[O-])cc1 | 0.303 µM (active) | 3.24 µM (inactive) | 0.198 µM (active) | 1.4 µM (inactive) | 0.107 µM (active) | 0.117 | 0.342 µM (active) | 2.92 µM (inactive) | 0.176 µM (active) | 0.597 µM (active) | 0.141 µM (active) | 1.17 µM (inactive) | 0.03 µM (active) | 0.705 µM (active) | 1.91 µM (inactive) | – | 0.277 µM (active) | 0.904 µM (active) | 0.262 µM (active) | 4.8 µM (inactive)
CCOC(=O)c1nc2ccccc2nc1Oc1cc(OC)c(OC)c(OC)c1 | > 100 µM (inactive) | > 100 µM (inactive) | > 100 µM (inactive) | 84.5 µM (inactive) | > 100 µM (inactive) | > 100 | > 100 µM (inactive) | > 100 µM (inactive) | > 100 µM (inactive) | > 100 µM (inactive) | > 100 µM (inactive) | 90.2 µM (inactive) | > 100 µM (inactive) | 46.9 µM (inactive) | 47.6 µM (inactive) | > 100 µM (inactive) | 83.4 µM (inactive) | 87.3 µM (inactive) | > 100 µM (inactive) | –
CCOP(=O)(OCC)/C(C#N)=C/c1c[nH]c2ccccc12 | > 100 µM (inactive) | > 100 µM (inactive) | > 100 µM (inactive) | > 100 µM (inactive) | > 100 µM (inactive) | > 100 | > 100 µM (inactive) | > 100 µM (inactive) | 45.8 µM (inactive) | > 100 µM (inactive) | 62.8 µM (inactive) | > 100 µM (inactive) | > 100 µM (inactive) | > 100 µM (inactive) | > 100 µM (inactive) | – | > 100 µM (inactive) | > 100 µM (inactive) | > 100 µM (inactive) | > 100 µM (inactive)
O=c1[nH]c2nc3ccccc3c(=O)n2/c1=C/c1cccs1 | > 100 µM (inactive) | > 100 µM (inactive) | > 100 µM (inactive) | > 100 µM (inactive) | > 100 µM (inactive) | > 100 | > 100 µM (inactive) | > 100 µM (inactive) | > 100 µM (inactive) | > 100 µM (inactive) | > 100 µM (inactive) | > 100 µM (inactive) | > 100 µM (inactive) | > 100 µM (inactive) | 87.7 µM (inactive) | > 100 µM (inactive) | > 100 µM (inactive) | > 100 µM (inactive) | > 100 µM (inactive) | > 100 µM (inactive)
Cc1c(Cl)c(=O)oc2cc(OCC(O)COC(C)C)ccc12 (stereo unspecified) | 22 µM (inactive) | > 100 µM (inactive) | 74.6 µM (inactive) | > 10 µM (inactive) | 33.7 µM (inactive) | – | 38.9 µM (inactive) | 99.5 µM (inactive) | 40.3 µM (inactive) | 35 µM (inactive) | 97.5 µM (inactive) | 30.3 µM (inactive) | 31.9 µM (inactive) | 44.1 µM (inactive) | 35 µM (inactive) | 27.5 µM (inactive) | > 100 µM (inactive) | > 100 µM (inactive) | 34.4 µM (inactive) | > 100 µM (inactive)
O=C(Nc1nncs1)NS(=O)(=O)n1c(=S)sc2ccccc21 | > 100 µM (inactive) | > 100 µM (inactive) | > 100 µM (inactive) | > 100 µM (inactive) | > 100 µM (inactive) | > 100 | > 100 µM (inactive) | > 100 µM (inactive) | > 100 µM (inactive) | > 100 µM (inactive) | > 100 µM (inactive) | > 100 µM (inactive) | 36.4 µM (inactive) | > 100 µM (inactive) | > 100 µM (inactive) | 42.4 µM (inactive) | 48.1 µM (inactive) | > 100 µM (inactive) | > 100 µM (inactive) | > 100 µM (inactive)
CC(=O)OC1(C)N=NC2(CCCCC2)O1 (stereo unspecified) | > 100 µM (inactive) | > 100 µM (inactive) | > 100 µM (inactive) | > 100 µM (inactive) | > 100 µM (inactive) | > 100 | > 100 µM (inactive) | > 100 µM (inactive) | – | > 100 µM (inactive) | > 100 µM (inactive) | > 100 µM (inactive) | > 100 µM (inactive) | > 100 µM (inactive) | > 100 µM (inactive) | > 100 µM (inactive) | > 100 µM (inactive) | > 100 µM (inactive) | > 100 µM (inactive) | > 100 µM (inactive)
COc1cc(NC(C)c2ccc3c(c2)OCCO3)cc(OC)c1OC (stereo unspecified) | 29.6 µM (inactive) | 95.5 µM (inactive) | 29.9 µM (inactive) | 46 µM (inactive) | 47.3 µM (inactive) | 24.4 | 68.4 µM (inactive) | 36.6 µM (inactive) | 56.9 µM (inactive) | 46.2 µM (inactive) | 32.1 µM (inactive) | 23.2 µM (inactive) | 10.4 µM (inactive) | 70 µM (inactive) | > 100 µM (inactive) | 26.3 µM (inactive) | 17.5 µM (inactive) | 18.9 µM (inactive) | 33.9 µM (inactive) | –
CC(=O)OC1CN2CCC1CC2 (stereo unspecified) [ACECLIDINE] | > 100 µM (inactive) | > 100 µM (inactive) | > 100 µM (inactive) | > 100 µM (inactive) | > 100 µM (inactive) | > 100 | > 100 µM (inactive) | > 100 µM (inactive) | > 100 µM (inactive) | > 100 µM (inactive) | > 100 µM (inactive) | – | > 100 µM (inactive) | > 100 µM (inactive) | > 100 µM (inactive) | > 100 µM (inactive) | > 100 µM (inactive) | > 100 µM (inactive) | > 100 µM (inactive) | > 100 µM (inactive)
